In ChEMBL document CHEMBL4376803, “Recent Advances in the Exploration of Therapeutic Analogues of Gramicidin S, an Old but Still Potent Antimicrobial Peptide” (J Med Chem, 2019):
Converted amounts (≈) assume the structure as drawn. Square brackets hold non-standard residues; d marks the D form. Peptide text beside a SMILES is read from it. Orn = NCCC[C@H](N)C(=O)O

How the values were obtained:
Candida albicans = assay: Antibacterial activity against Candida albicans after overnight incubation by microtiter dilution method; format: functional
Escherichia coli [1] = assay: Antibacterial activity against Escherichia coli ATCC 25922 after 22 hrs by double dilution method; format: functional; settings: ATCC 25922, 22 h
Escherichia coli [2] = assay: Antibacterial activity against Escherichia coli K-12 ATCC 29181 after overnight incubation by broth microdilution method; format: functional
Pseudomonas aeruginosa [3] = assay: Antibacterial activity against Pseudomonas aeruginosa ATCC 19582 after 24 hrs by broth dilution method; format: functional; settings: ATCC 19582, 24 h
[4] = test system: Staphylococcus epidermidis; assay: Antibacterial activity against Staphylococcus epidermidis ATCC 12228 after 22 hrs by double dilution method; format: functional; settings: ATCC 12228, 22 h
Enterococcus faecalis [5] = assay: Antibacterial activity against Enterococcus faecalis ATCC 29212 after overnight incubation by microtiter dilution method; format: functional
Pseudomonas aeruginosa [6] = assay: Antibacterial activity against Pseudomonas aeruginosa H187 after overnight incubation by microtiter dilution method; format: functional
Salmonella = assay: Antibacterial activity against Salmonella after overnight incubation by broth microdilution method; format: functional
Enterococcus faecalis [7] = assay: Antibacterial activity against Enterococcus faecalis ATCC 29212; format: functional
Escherichia coli [8] = assay: Antibacterial activity against Escherichia coli ATCC 25922 after 24 hrs; format: functional; settings: ATCC 25922, 24 h
Staphylococcus aureus [9] = assay: Antibacterial activity against methicillin-resistant Staphylococcus aureus ATCC 4330; format: functional
Enterococcus faecalis [10] = assay: Antibacterial activity against Enterococcus faecalis ATCC 29212 after 22 hrs by double dilution method; format: functional; settings: ATCC 29212, 22 h
Staphylococcus aureus [11] = assay: Antibacterial activity against Staphylococcus aureus ATCC 29213; format: functional
Pseudomonas aeruginosa [12] = assay: Antibacterial activity against Pseudomonas aeruginosa ATCC 27853; format: functional
Escherichia coli [13] = assay: Antibacterial activity against Escherichia coli NBRC 12734 after overnight incubation by microplate dilution method; format: functional
[14] = test system: Staphylococcus epidermidis; assay: Antibacterial activity against Staphylococcus epidermidis; format: functional
Priestia megaterium [15] = assay: Antibacterial activity against Bacillus megaterium ATCC 19213 after overnight incubation by microplate dilution method; format: functional
Escherichia coli [16] = assay: Antibacterial activity against Escherichia coli ATCC 25922; format: functional
Priestia megaterium [17] = assay: Antibacterial activity against Bacillus megaterium ATCC 19213; format: functional
Bacillus subtilis [18] = assay: Antibacterial activity against Bacillus subtilis CIP 52.65 incubated for 48 hrs; format: functional; settings: CIP 52.65, 48 h
Escherichia coli [19] = assay: Antibacterial activity against Escherichia coli NBRC 12734; format: functional
Staphylococcus aureus [20] = assay: Antibacterial activity against Staphylococcus aureus ATCC 29213 after 24 hrs; format: functional; settings: ATCC 29213, 24 h
[21] = test system: Staphylococcus epidermidis; assay: Antibacterial activity against Staphylococcus epidermidis ATCC 27626 after overnight incubation by broth microdilution method; format: functional
Escherichia coli [22] = assay: Antibacterial activity against Escherichia coli UB1005 after overnight incubation by microtiter dilution method; format: functional
Escherichia coli [23] = assay: Antibacterial activity against Escherichia coli ATCC 25922 after 24 hrs by broth dilution method; format: functional; settings: ATCC 25922, 24 h
Staphylococcus aureus [24] = assay: Antibacterial activity against Staphylococcus aureus NBRC 12732 after overnight incubation by microplate dilution method; format: functional
Staphylococcus aureus [25] = assay: Antibacterial activity against Staphylococcus aureus ATCC 6538 incubated for 48 hrs; format: functional; settings: ATCC 6538, 48 h
[26] = test system: Staphylococcus epidermidis; assay: Antibacterial activity against Staphylococcus epidermidis ATCC 12228 incubated for 24 hrs; format: functional; settings: ATCC 12228, 24 h
Staphylococcus aureus [27] = assay: Antibacterial activity against Staphylococcus aureus 209P incubated for 20 hrs by liquid microdilution method; format: functional
Enterococcus faecalis [28] = assay: Antibacterial activity against Enterococcus faecalis ATCC 29212 after 24 hrs; format: functional; settings: ATCC 29212, 24 h
Enterococcus faecalis [29] = assay: Antibacterial activity against Enterococcus faecalis 1131 after 24 hrs by broth dilution method; format: functional; settings: Enterococcus faecalis, 1131, 24 h
Staphylococcus aureus [30] = assay: Antibacterial activity against Staphylococcus aureus 7323; format: functional
Bacillus cereus = assay: Antibacterial activity against Bacillus cereus ATCC 11778 incubated for 24 hrs; format: functional; settings: ATCC 11778, 24 h
Pseudomonas aeruginosa [31] = assay: Antibacterial activity against Pseudomonas aeruginosa NBRC 3080 after overnight incubation by microplate dilution method; format: functional
Staphylococcus aureus [32] = assay: Antibacterial activity against Staphylococcus aureus ATCC 25923 after 22 hrs by double dilution method; format: functional; settings: ATCC 25923, 22 h
Staphylococcus aureus [33] = assay: Antibacterial activity against multidrug-resistant Staphylococcus aureus ATCC BAA-44 after overnight incubation by broth microdilution method; format: functional
Pseudomonas aeruginosa [34] = assay: Antibacterial activity against Pseudomonas aeruginosa ATCC 27853 incubated for 24 hrs; format: functional; settings: ATCC 27853, 24 h
Staphylococcus aureus [35] = assay: Antibacterial activity against vancomycin-resistant Staphylococcus aureus Mu50/ATCC 700699 after overnight incubation by broth microdilution method; format: functional
Staphylococcus aureus [36] = assay: Antibacterial activity against methicillin-resistant Staphylococcus aureus NT 1110301981H-T034-PVL+ incubated for 24 hrs; format: functional
Pseudomonas aeruginosa [37] = assay: Antibacterial activity against Pseudomonas aeruginosa NBRC 3080; format: functional
Escherichia coli [38] = assay: Antibacterial activity against Escherichia coli ATCC 8739 incubated for 48 hrs; format: functional; settings: ATCC 8739, 48 h
Staphylococcus aureus [39] = assay: Antibacterial activity against Staphylococcus aureus ATCC 49975 after 16 to 20 hrs by broth microdilution method; format: functional
Staphylococcus aureus [40] = assay: Antibacterial activity against Staphylococcus aureus K147 after overnight incubation by microtiter dilution method; format: functional
Pseudomonas aeruginosa [41] = assay: Antibacterial activity against Pseudomonas aeruginosa ATCC 27853 after 22 hrs by double dilution method; format: functional; settings: ATCC 27853, 22 h
Staphylococcus aureus [42] = assay: Antibacterial activity against Staphylococcus aureus NBRC 12732; format: functional
Bacillus subtilis [43] = assay: Antibacterial activity against Bacillus subtilis NBRC 3513; format: functional
Pseudomonas aeruginosa [44] = assay: Antibacterial activity against Pseudomonas aeruginosa ATCC 9027 incubated for 48 hrs; format: functional; settings: ATCC 9027, 48 h
Staphylococcus aureus [45] = assay: Antibacterial activity against Staphylococcus aureus; format: functional
Bacillus subtilis [46] = assay: Antibacterial activity against Bacillus subtilis NBRC 3513 after overnight incubation by microplate dilution method; format: functional
Klebsiella pneumoniae = assay: Antibacterial activity against Klebsiella pneumonia K6 ATCC 700603 after overnight incubation by broth microdilution method; format: functional; settings: 700603 K6
Staphylococcus xylosus = assay: Antibacterial activity against Staphylococcus xylosus; format: functional
Escherichia coli [47] = assay: Antibacterial activity against Escherichia coli K-12 strain W3110 incubated for 20 hrs by liquid microdilution method; format: functional; settings: K-12 substr. W3110, 20 h
[48] = Therapeutic index, ratio of HD100 for hemolytic activity in human RBC to MIC against Enterococcus faecalis ATCC 29212; format: toxicity; settings: human red blood cells, read-out: TI
Erythrocyte = assay: Haemolytic activity in human RBC after 24 hrs by visual method; format: ADME, cell-based
Lipopolysaccharide (LPS) = assay: Displacement of Dansyl-polymyxin from Pseudomonas aeruginosa LPS by fluorescence method; settings: read-out: I50
[49] = Therapeutic index, ratio of HD100 for hemolytic activity in human RBC to MIC against Candida albicans; format: toxicity; settings: human red blood cells, read-out: TI
[50] = Therapeutic index, ratio of HD100 for hemolytic activity in human RBC to MIC against Pseudomonas aeruginosa H187; format: toxicity; settings: human red blood cells, read-out: TI
[51] = Therapeutic index, ratio of HD100 for hemolytic activity in human RBC to MIC against Staphylococcus aureus K147; format: toxicity; settings: human red blood cells, read-out: TI
[52] = Therapeutic index, ratio of HD100 for hemolytic activity in human RBC to MIC against Escherichia coli UB1005; format: toxicity; settings: human red blood cells, read-out: TI

Work on `CC(C)C[C@@H]1NC(=O)[C@H](CCCN)NC(=O)[C@H](C(C)C)NC(=O)[C@@H]2CCCN2C(=O)[C@@H](Cc2ccccc2)NC(=O)[C@H](CC(C)C)NC(=O)[C@H](CCCN)NC(=O)[C@H](C(C)C)NC(=O)[C@@H]2CCCN2C(=O)[C@@H](Cc2ccccc2)NC1=O` (cyclo(V[Orn]L[dF]PV[Orn]L[dF]P)) yielded an MIC (Candida albicans) of 3.1 µg/mL (≈ 2.72 µM), an MIC (Escherichia coli [1]) of 32 µg/mL (≈ 28 µM) and an MIC (Escherichia coli [2]) of 28 µg/mL (≈ 24.5 µM). The MIC (Pseudomonas aeruginosa [3]) was 8 µg/mL (≈ 7.01 µM), the MIC [4] was 2 µg/mL (≈ 1.75 µM) and the MIC (Enterococcus faecalis [5]) was 2.8 µg/mL (≈ 2.45 µM). It also gave an MIC (Pseudomonas aeruginosa [6]) of 20 µg/mL (≈ 17.5 µM), an MIC (Salmonella) of 28 µg/mL (≈ 24.5 µM) and an MIC (Enterococcus faecalis [7]) of 8 µg/mL (≈ 7.01 µM). The MIC (Escherichia coli [8]) was 32 µg/mL (≈ 28 µM), the MIC (Staphylococcus aureus [9]) was 8 µg/mL (≈ 7.01 µM) and the MIC (Enterococcus faecalis [10]) was 8 µg/mL (≈ 7.01 µM). For the same molecule, the MIC (Staphylococcus aureus [11]) was 4 µg/mL (≈ 3.5 µM), the MIC (Pseudomonas aeruginosa [12]) was 64 µg/mL (≈ 56.1 µM) and the MIC (Escherichia coli [13]) was 25 µg/mL (≈ 21.9 µM). For the same molecule, the MIC [14] was 2 µg/mL (≈ 1.75 µM), the MIC (Priestia megaterium [15]) was 3.13 µg/mL (≈ 2.74 µM) and the MIC (Escherichia coli [16]) was 32 µg/mL (≈ 28 µM). It also gave an MIC (Priestia megaterium [17]) of 3.13 µg/mL (≈ 2.74 µM), an MIC (Bacillus subtilis [18]) of 1.56 µg/mL (≈ 1.37 µM) and an MIC (Escherichia coli [19]) of 25 µg/mL (≈ 21.9 µM). The MIC (Staphylococcus aureus [20]) was 8 µg/mL (≈ 7.01 µM), the MIC [21] was 1.8 µg/mL (≈ 1.58 µM) and the MIC (Escherichia coli [22]) was 6.2 µg/mL (≈ 5.43 µM). It also gave an MIC (Escherichia coli [23]) of 32 µg/mL (≈ 28 µM), an MIC (Staphylococcus aureus [24]) of 3.13 µg/mL (≈ 2.74 µM) and an MIC (Staphylococcus aureus [25]) of 3.12 µg/mL (≈ 2.74 µM). For the same molecule, the MIC [26] was 8 µg/mL (≈ 7.01 µM), the MIC (Staphylococcus aureus [27]) was 4 µg/mL (≈ 3.5 µM) and the MIC (Enterococcus faecalis [28]) was 8 µg/mL (≈ 7.01 µM). The MIC (Enterococcus faecalis [29]) was 8 µg/mL (≈ 7.01 µM), the MIC (Staphylococcus aureus [30]) was 8 µg/mL (≈ 7.01 µM) and the MIC (Bacillus cereus) was 8 µg/mL (≈ 7.01 µM). The MIC (Pseudomonas aeruginosa [31]) was 25 µg/mL (≈ 21.9 µM), the MIC (Staphylococcus aureus [32]) was 4 µg/mL (≈ 3.5 µM) and the MIC (Staphylococcus aureus [33]) was 1.8 µg/mL (≈ 1.58 µM). The MIC (Pseudomonas aeruginosa [34]) was 64 µg/mL (≈ 56.1 µM), the MIC (Staphylococcus aureus [35]) was 3.6 µg/mL (≈ 3.15 µM) and the MIC (Staphylococcus aureus [36]) was 8 µg/mL (≈ 7.01 µM). It also gave an MIC (Pseudomonas aeruginosa [37]) of 25 µg/mL (≈ 21.9 µM), an MIC (Escherichia coli [38]) of 12.5 µg/mL (≈ 11 µM) and an MIC (Staphylococcus aureus [39]) of 2 µg/mL (≈ 1.75 µM). The MIC (Staphylococcus aureus [40]) was 1.5 µg/mL (≈ 1.31 µM), the MIC (Pseudomonas aeruginosa [41]) was 64 µg/mL (≈ 56.1 µM) and the MIC (Staphylococcus aureus [42]) was 3.13 µg/mL (≈ 2.74 µM). The MIC (Bacillus subtilis [43]) was 3.13 µg/mL (≈ 2.74 µM), the MIC (Pseudomonas aeruginosa [44]) was 50 µg/mL (≈ 43.8 µM) and the MIC (Staphylococcus aureus [45]) was 2 µg/mL (≈ 1.75 µM). For the same molecule, the MIC (Bacillus subtilis [46]) was 3.13 µg/mL (≈ 2.74 µM), the MIC (Klebsiella pneumoniae) was 3.6 µg/mL (≈ 3.15 µM) and the MIC (Staphylococcus xylosus) was 1 µg/mL (≈ 0.876 µM). The MIC (Escherichia coli [47]) was 32 µg/mL (≈ 28 µM).

`CC(C)C[C@@H]1NC(=O)[C@H](CCCCN)NC(=O)[C@H](C(C)C)NC(=O)[C@@H]2CCCN2C(=O)[C@@H](Cc2ccc(O)cc2)NC(=O)[C@H](CC(C)C)NC(=O)[C@H](CCCCN)NC(=O)[C@H](C(C)C)NC(=O)[C@H](CCCCN)NC(=O)[C@H](CC(C)C)NC(=O)[C@@H]2CCCN2C(=O)[C@@H](Cc2ccc(O)cc2)NC(=O)[C@H](C(C)C)NC(=O)[C@@H](CCCCN)NC1=O` (cyclo(KL[dK]V[dY]PLKVKL[dY]PV)) gave an MIC (Candida albicans) of 6.2 µg/mL (≈ 3.71 µM), a selectivity ratio [48] of 133 and an MIC (Enterococcus faecalis [5]) of 1.5 µg/mL (≈ 0.898 µM). The MIC (Pseudomonas aeruginosa [6]) was 25 µg/mL (≈ 15 µM), the HD100 (Erythrocyte) was 200 µg/mL and the MIC (Escherichia coli [22]) was 6.2 µg/mL (≈ 3.71 µM). The IC50 (Lipopolysaccharide (LPS)) was 93 µM, the selectivity ratio [49] was 32 and the selectivity ratio [50] was 8. The MIC (Staphylococcus aureus [40]) was 100 µg/mL (≈ 59.9 µM), the selectivity ratio [51] was 2 and the selectivity ratio [52] was 32.
